Experimental data from article PMC7093396 (Scientific Reports, 2020).
≈ marks a conversion by molar mass, not a printed value.

Tests used:
E. coli BW25113 = test system: T1, E. coli BW25113; experiment: microbe, parasite or virus in culture; set-up: Broth dilution growth at OD600 in Ca/HEPES:YPSC, 29 °C, Gompertz-fit MIC; conditions: Escherichia coli, BW25113, 24 h; Ca/HEPES:YPSC, 29 °C, non-standard MIC
T1 construct: BW25113
Description: Serial antibiotic dilutions in 100 µL Ca/HEPES were made along the rows of 96-well plates including controls without antibiotic. E. coli BW25113 cells from an overnight culture were washed and re-suspended in Ca/HEPES buffer to a final OD600 of 0.024. Aliquots of 50 µL of this E. coli suspension and 50 µL of a fresh YPSC broth were added to the wells of these plates and the blank measured at 600 nm. Final OD600 measurements were carried out after an incubation of 24 hours at 29 °C under shaking conditions. Data is shown as percentage of growth and plotted in a graph against the logarithm of antibiotic concentration. MIC values were calculated by fitting data with a Gompertz modified equation[15] (using GraphPad Prism 5). […] Antibiotics characterized by a high B. bacteriovorus/E. coli MIC ratio, such as amikacin, kanamycin, gentamicin and aztreonam (Table 1), are of particular interest for a B. bacteriovorus based co-therapy against E. coli infections.

B. bacteriovorus HD100 = test system: T2, B. bacteriovorus HD100; experiment: microbe, parasite or virus in culture; set-up: species or system B. bacteriovorus HD100 with E. coli BW25113 prey; Predatory growth on E. coli prey, OD600 reduction, Gompertz-fit MIC by linear regression at PPR 0.02; conditions: Escherichia coli, HD100, 24 h; co-culture with E. coli BW25113 prey, theoretical MIC at PPR 0.02
T2 construct: HD100
Description: Two-fold serial dilutions of antibiotics (Table S6) were made along the rows of 96-well plates (BRANDplates pureGrade^TM S, no. 781662) in 100 µL Ca/HEPES buffer (5.94 g/L HEPES free acid, 0.284 g/L calcium chloride 2·H2O, adjusted to pH 7.6 with NaOH), including controls (no antibiotic present). B. bacteriovorus cultures were diluted by a factor of 25 in Ca/HEPES buffer. B. bacteriovorus two-fold serial dilutions were prepared in a new sterile 96-well plate along the column line (using as diluent a suspension of heat-inactivated B. bacteriovorus), including controls (no viable B. bacteriovorus present). Fifty µL of these dilution series were transferred from each well of the latter plate to the corresponding wells of plates with antibiotic dilution series. Subsequently, 50 µL of an E. coli BW25113 overnight culture grown in YPSC broth was added to each plate well. At this point, which corresponds to time zero, the blank was determined by measuring the OD600 of cell suspensions in a plate reader (TECAN Infinite 200 Pro). Final OD600 measurements were carried out after an incubation of 24 hours at 29 °C under shaking conditions (300 rpm, 3 mm throw). The number of E. coli cells was estimated by reading the OD600 of the overnight culture prior to the beginning of the assay. The number of viable B. bacteriovorus cells was estimated by plating in double layer YPSC agar plates as explained elsewhere. Following an incubation time of three days at 29 °C, the number of B. bacteriovorus cells in the initial inoculation culture was estimated by counting plaque forming units (PFU). Enumeration of B. bacteriovorus by plaques count ensures that only viable cells are counted and, in our experience, is preferable over other methods based on microscopy and/or fluorescence. Pictures of plaques were acquired by the aid of a plaque visualization chamber, specially developed in this study for this purpose (Fig. S9). All absorbance values were subtracted of the related blanks. Then, absorbance values of test samples (B. bacteriovorus co-cultures) were subtracted from the control values (E. coli without B. bacteriovorus) and plotted in graph against the logarithm of antibiotic concentrations. The resulting Δ curve is an indication of B. bacteriovorus growth. Data was expressed as percentage of growth and plotted in a graph of log(inhibitor) vs. response. The minimal inhibitory concentration (MIC) value was defined as the concentration of antibiotic that prevent B. bacteriovorus growth and were calculated by fitting B. bacteriovorus growth inhibition curves with a Gompertz modified equation[15] (using GraphPad Prism 5). […] Direct cell growth measurements of B. bacteriovorus upon prey bacteria can be estimated by reduction of the optical density at 600 nm (OD600) (i.e. the loss of culture turbidity by B. bacteriovorus-induced lysis of prey cells). In this study, we designed a 96-well based method for the determination of antibiotic MICs for B. bacteriovorus. B. bacteriovorus HD100 cells were added to an E. coli culture and the reduction of OD600 measured in absence and presence of different concentrations of antibiotics. Assays were conducted in a solution of Ca/HEPES buffer and the exhausted medium transferred with the E. coli overnight culture and the B. bacteriovorus dilution. Therefore, E. coli cells were in the stationary phase and their growth during the assays was negligible. […] MIC values are dependent on the initial PPR used in the assay, as standard MIC assays are dependent on the initial bacterial concentration. However, B. bacteriovorus numbers and therefore, the initial PPR can be estimated reliably only after the assay by plating in double layer agar plates. The relation between initial PPR and MIC values was then investigated by adding different numbers of B. bacteriovorus cells to the fixed number of E. coli prey cells in parallel replicated experiments (on different rows of the same plate containing replicated antibiotic serial dilutions). […]

## NCC[C@H](O)C(=O)N[C@@H]1C[C@H](N)[C@@H](O[C@H]2O[C@H](CN)[C@@H](O)[C@H](O)[C@H]2O)[C@H](O)[C@H]1O[C@H]1O[C@H](CO)[C@@H](O)[C@H](N)[C@H]1O [Amikacin]
E. coli BW25113
  MIC: 0.06 µg/mL (≈ 0.102 µM)
B. bacteriovorus HD100
  MIC: 0.7 ± 0.02 µg/mL (≈ 1.2 µM)

## CC1(C)S[C@@H]2[C@H](NC(=O)[C@H](N)c3ccccc3)C(=O)N2[C@H]1C(=O)O [Ampicillin]
E. coli BW25113
  MIC: 5.4 µg/mL (≈ 15.5 µM)
B. bacteriovorus HD100
  MIC: 1.3 ± 0.2 µg/mL (≈ 3.72 µM)

## C[C@H]1[C@H](NC(=O)/C(=N\OC(C)(C)C(=O)O)c2csc(N)n2)C(=O)N1S(=O)(=O)O [Aztreonam]
E. coli BW25113
  MIC: 5.7 µg/mL (≈ 13.1 µM)
B. bacteriovorus HD100
  MIC: 41 ± 4 µg/mL (≈ 94.2 µM)

## N[C@@H](C(=O)N[C@@H]1C(=O)N2C(C(=O)O)=C(Cl)CS[C@H]12)c1ccccc1 [Cefaclor]
E. coli BW25113
  MIC: 10 µg/mL (≈ 27.2 µM)
B. bacteriovorus HD100
  MIC: 18 ± 2 µg/mL (≈ 48.9 µM)

## Cc1nnc(SCC2=C(C(=O)O)N3C(=O)[C@@H](NC(=O)Cn4cnnn4)[C@H]3SC2)s1 [Cefazolin]
E. coli BW25113
  MIC: 2 µg/mL (≈ 4.4 µM)
B. bacteriovorus HD100
  MIC: 0.51 ± 0.07 µg/mL (≈ 1.12 µM)

## CCN1CCN(C(=O)N[C@@H](C(=O)N[C@@H]2C(=O)N3C(C(=O)O)=C(CSc4nnnn4C)CS[C@H]23)c2ccc(O)cc2)C(=O)C1=O [Cefoperazone]
E. coli BW25113
  MIC: 0.6 µg/mL (≈ 0.929 µM)
B. bacteriovorus HD100
  MIC: 1.3 ± 0.3 µg/mL (≈ 2.01 µM)

## CC(C)(O/N=C(\C(=O)N[C@@H]1C(=O)N2C(C(=O)[O-])=C(C[n+]3ccccc3)CS[C@H]12)c1csc(N)n1)C(=O)O [Ceftazidime]
E. coli BW25113
  MIC: 19 µg/mL (≈ 34.8 µM)
B. bacteriovorus HD100
  MIC: 7.8 ± 0.4 µg/mL (≈ 14.3 µM)

## O=C(N[C@H](CO)[C@H](O)c1ccc([N+](=O)[O-])cc1)C(Cl)Cl [Chloramphenicol]
E. coli BW25113
  MIC: 10 µg/mL (≈ 30.9 µM)
B. bacteriovorus HD100
  MIC: 0.16 µg/mL (≈ 0.495 µM)

## O=C(O)c1cn(C2CC2)c2cc(N3CCNCC3)c(F)cc2c1=O [Ciprofloxacin]
E. coli BW25113
  MIC: 0.13 µg/mL (≈ 0.392 µM)
B. bacteriovorus HD100
  MIC: 0.31 ± 0.04 µg/mL (≈ 0.936 µM)

## CNC(C)[C@@H]1CC[C@@H](N)[C@@H](O[C@H]2[C@H](O)[C@@H](O[C@H]3OC[C@](C)(O)[C@H](NC)[C@H]3O)[C@H](N)C[C@@H]2N)O1 (stereo partly shown) [Gentamicin]
E. coli BW25113
  MIC: 0.0084 µg/mL (≈ 0.0176 µM)
B. bacteriovorus HD100
  MIC: 0.06 µg/mL (≈ 0.126 µM)

## NC[C@H]1O[C@H](O[C@H]2[C@H](O)[C@@H](O[C@H]3O[C@H](CO)[C@@H](O)[C@H](N)[C@H]3O)[C@H](N)C[C@@H]2N)[C@H](O)[C@@H](O)[C@@H]1O [Kanamycin]
E. coli BW25113
  MIC: 0.081 µg/mL (≈ 0.167 µM)
B. bacteriovorus HD100
  MIC: 0.69 ± 0.06 µg/mL (≈ 1.42 µM)

## C[C@H]1COc2c(N3CCN(C)CC3)c(F)cc3c(=O)c(C(=O)O)cn1c23 [Levofloxacin]
E. coli BW25113
  MIC: 0.064 µg/mL (≈ 0.177 µM)
B. bacteriovorus HD100
  MIC: 0.23 ± 0.02 µg/mL (≈ 0.636 µM)

## CCC[C@@H]1C[C@@H](C(=O)N[C@@H]([C@H]2O[C@H](SC)[C@H](O)[C@@H](O)[C@H]2O)[C@@H](C)O)N(C)C1 [Lincomycin]
B. bacteriovorus HD100
  MIC: 7.9 ± 0.9 µg/mL (≈ 19.4 µM)

## C[C@@H](O)[C@H]1C(=O)N2C(C(=O)O)=C(S[C@@H]3CN[C@H](C(=O)N(C)C)C3)[C@H](C)[C@H]12 [Meropenem]
E. coli BW25113
  MIC: 0.14 µg/mL (≈ 0.365 µM)
B. bacteriovorus HD100
  MIC: 0.42 ± 0.06 µg/mL (≈ 1.1 µM)

## CC1(C)S[C@@H]2[C@H](NC(=O)Cc3ccccc3)C(=O)N2[C@H]1C(=O)O [Penicillin G]
E. coli BW25113
  MIC: 19 µg/mL (≈ 56.8 µM)
B. bacteriovorus HD100
  MIC: 3.4 ± 0.5 µg/mL (≈ 10.2 µM)

## CCN1CCN(C(=O)N[C@@H](C(=O)N[C@@H]2C(=O)N3[C@@H]2SC(C)(C)[C@@H]3C(=O)O)c2ccccc2)C(=O)C1=O [Piperacillin]
E. coli BW25113
  MIC: 122 µg/mL (≈ 236 µM)
B. bacteriovorus HD100
  MIC: 2.5 ± 0.5 µg/mL (≈ 4.83 µM)

## COc1cc(Cc2cnc(N)nc2N)cc(OC)c1OC [TMP, trimethoprim]
B. bacteriovorus HD100
  MIC: 223 ± 24 µg/mL (≈ 768 µM)

## CN(C)[C@@H]1C(O)=C(C(N)=O)C(=O)[C@@]2(O)C(O)=C3C(=O)c4c(O)cccc4[C@@](C)(O)[C@H]3C[C@@H]12 [Tetracycline]
E. coli BW25113
  MIC: 4.8 µg/mL (≈ 10.8 µM)
B. bacteriovorus HD100
  MIC: 1.7 ± 0.2 µg/mL (≈ 3.83 µM)

## CN(C)c1cc(NC(=O)CNC(C)(C)C)c(O)c2c1C[C@H]1C[C@H]3[C@H](N(C)C)C(O)=C(C(N)=O)C(=O)[C@@]3(O)C(O)=C1C2=O [Tigecycline]
E. coli BW25113
  MIC: 2.3 µg/mL (≈ 3.93 µM)
B. bacteriovorus HD100
  MIC: 0.59 ± 0.01 µg/mL (≈ 1.01 µM)

## CN[C@H](CC(C)C)C(=O)N[C@H]1C(=O)N[C@@H](CC(N)=O)C(=O)N[C@H]2C(=O)N[C@H]3C(=O)N[C@H](C(=O)N[C@H](C(=O)O)c4cc(O)cc(O)c4-c4cc3ccc4O)[C@H](O)c3ccc(c(Cl)c3)Oc3cc2cc(c3O[C@@H]2O[C@H](CO)[C@@H](O)[C@H](O)[C@H]2O[C@H]2C[C@](C)(N)[C@H](O)[C@H](C)O2)Oc2ccc(cc2Cl)[C@H]1O [Vancomycin]
B. bacteriovorus HD100
  MIC: 16 ± 1 µg/mL (≈ 11 µM)
